Test results reported in ChEMBL document CHEMBL1143608, “Novel C-17-heteroaryl steroidal CYP17 inhibitors/antiandrogens: synthesis, in vitro biological activity, pharmacokinetics, and antitumor activity in the LAPC4 human prostate cancer xenograft model” (J Med Chem, 2005).

Legend:
[1] = Time required for maximum concentration at 50 mg/kg upon subcutaneous administration was determined in mouse; n = 5; format: ADME, organism-based; set-up: dose 50 mg/kg, route subcutaneous; details: in vivo, sc
[2] = Area under curve at 50 mg/kg upon subcutaneous administration was determined in mouse; n = 5; format: ADME, organism-based; set-up: dose 50 mg/kg, route subcutaneous; details: in vivo, sc
[3] = […] at 50 mg/kg upon subcutaneous administration was determined in mouse; n = 5; format: ADME, organism-based; set-up: dose 50 mg/kg, route subcutaneous; details: in vivo, sc
[4] = target: T1, 3-oxo-5-alpha-steroid 4-dehydrogenase 1 (Homo sapiens, UniProt P18405); assay: Inhibition of [1-beta-3H]-androstenedione binding to human steroid 5-alpha-reductase type I expressed in DU-145 cells at 10 uM; format: functional, cell-based
T1 sequence (P18405 whole entry): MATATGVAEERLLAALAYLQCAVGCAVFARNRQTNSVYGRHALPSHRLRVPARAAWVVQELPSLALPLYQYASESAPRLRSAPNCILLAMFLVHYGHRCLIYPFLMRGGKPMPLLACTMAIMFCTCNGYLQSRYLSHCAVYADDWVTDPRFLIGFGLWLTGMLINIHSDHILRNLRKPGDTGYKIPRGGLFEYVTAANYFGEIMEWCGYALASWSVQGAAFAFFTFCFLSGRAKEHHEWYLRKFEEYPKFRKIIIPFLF

[5] = Maximum concentration at 50 mg/kg upon subcutaneous administration was determined in mouse; n = 5; format: ADME, organism-based; set-up: dose 50 mg/kg, route subcutaneous; details: in vivo, sc
[6] = Elimination rate constant at 50 mg/kg upon subcutaneous administration was determined in mouse; n = 5; format: ADME, organism-based; set-up: dose 50 mg/kg, route subcutaneous; details: in vivo, sc
[7] = target: T2, 3-oxo-5-alpha-steroid 4-dehydrogenase 2 (Homo sapiens, UniProt P31213); assay: (§1) Inhibition of [1-beta-2beta-3H]- -testosterone binding to human steroid 5-alpha-reductase type 2 of BPH tissue at 10 uM; format: functional
T2 sequence (P31213 whole entry): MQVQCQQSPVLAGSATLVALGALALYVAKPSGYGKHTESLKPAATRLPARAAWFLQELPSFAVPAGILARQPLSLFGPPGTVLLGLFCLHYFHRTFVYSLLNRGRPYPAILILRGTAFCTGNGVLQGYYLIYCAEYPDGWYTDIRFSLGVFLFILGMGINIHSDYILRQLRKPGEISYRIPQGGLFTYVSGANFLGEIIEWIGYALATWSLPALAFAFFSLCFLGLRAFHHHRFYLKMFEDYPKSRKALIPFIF

[8] = Volume of distribution at 50 mg/kg upon subcutaneous administration was determined in mouse; n = 5; format: ADME, organism-based; set-up: dose 50 mg/kg, route subcutaneous; details: in vivo, sc
[9] = Half life at 50 mg/kg upon subcutaneous administration was determined in mouse; n = 5; format: ADME, organism-based; set-up: dose 50 mg/kg, route subcutaneous; details: in vivo, sc
[10] = target: T3, 3-oxo-5-alpha-steroid 4-dehydrogenase 2 (Homo sapiens) (UniProt P31213); assay: as §1; format: functional
T3 sequence (whole entry): T2 sequence (P31213 whole entry)

[11] = target: T4, 3-oxo-5-alpha-steroid 4-dehydrogenase 1 (Homo sapiens) (UniProt P18405); assay: Inhibition of [1-beta-3H]-androstenedione binding to human steroid 5-alpha-reductase type I expressed in DU-145 cells at 10 uM; ni=no inhibition up to 10 uM; format: functional, cell-based
T4 sequence (whole entry): T1 sequence (P18405 whole entry)

[12] = target: T4, 3-oxo-5-alpha-steroid 4-dehydrogenase 1 (Homo sapiens); assay: Inhibition of human steroid 5-alpha-reductase type I expressed in DU-145 cells using [1-beta-3H]-androstenedione at a concentration of 10 uM; format: functional, cell-based
[13] = Volume of distribution at 100 mg/kg upon subcutaneous administration was determined in mouse; n = 5; format: ADME, organism-based; set-up: dose 100 mg/kg, route subcutaneous; details: in vivo, sc
[14] = Time required for maximum concentration at 100 mg/kg upon subcutaneous administration was determined in mouse; n = 5; format: ADME, organism-based; set-up: dose 100 mg/kg, route subcutaneous; details: in vivo, sc
[15] = Area under curve at 100 mg/kg upon subcutaneous administration was determined in mouse; n = 5; format: ADME, organism-based; set-up: dose 100 mg/kg, route subcutaneous; details: in vivo, sc
[16] = Maximum concentration at 100 mg/kg upon subcutaneous administration was determined in mouse; n = 5; format: ADME, organism-based; set-up: dose 100 mg/kg, route subcutaneous; details: in vivo, sc
[17] = Half life at 100 mg/kg upon subcutaneous administration was determined in mouse; n = 5; format: ADME, organism-based; set-up: dose 100 mg/kg, route subcutaneous; details: in vivo, sc

Row | Compound | Tmax [1] [min] | AUC [2] [ng·h/mL] | MRT [3] [min] | IC50 [4] [nM] | Cmax [5] [ng/mL] | k el [6] [s⁻¹] | IC50 [7] [nM] | Vd [8] [L/kg] | half-life [9] [min] | inhibition [10] [%] | inhibition [11] | inhibition [12] [%] | Vd [13] [L/kg] | Tmax [14] [min] | AUC [15] [ng·h/mL] | Kel [6] [h⁻¹] | Cmax [16] [ng/mL] | T1/2 [17] [min] | T1/2 [9] [min]
1 | C[C@]12CCC(=O)C=C1CCC1C2CC[C@]2(C)C(n3cnc4ccccc43)=CCC12 (some centres not stated) | 60 | 10800 | 80 | 770 | 5150 | 0.000305 | 480 | 4.207 | 37.9 | – | – | – | – | – | – | – | – | – | –
2 | C[C@]12CC[C@H](O)CC1=CCC1C2CC[C@]2(C)C(n3nnc4ccccc43)=CCC12 (some centres not stated) | – | – | – | – | – | – | – | – | – | 17 | No inhibition | – | – | – | – | – | – | – | –
3 | C[C@]12CCC(=O)C=C1CCC1C2CC[C@]2(C)C(n3nnc4ccccc43)=CCC12 (some centres not stated) | – | – | – | – | – | – | – | – | – | 56 | – | 21 | – | – | – | – | – | – | –
4 | C[C@]12CC[C@H](O)CC1=CCC1C2CC[C@]2(C)C(n3cnc4ccccc43)=CCC12 (some centres not stated) | 30 | 24000 | 65.4 | – | 16800 | – | – | 2.09899 | – | 53 | – | 4 | 3.27639 | 30 | 30200 | 0.942 | 32200 | 36.6 | 44.17
